Laboratory results taken from patent publication US20240294517A1, “2-[3-[1 [(QUINAZOLIN-4-YL)AMINO]ETHYL]PYRAZIN-2-YL]THIAZOLE-5-CARBONITRILE DERIVATIVES AND SIMILAR COMPOUNDS AS PESTICIDES” (SYNGENTA CROP PROTECTION AG, priority 2021, published 2024).

Tests used:
Assay type in all cases: in vivo
[1] = tested on: Chilo suppressalis; assay: Activity against Chilo suppressalis (striped rice stemborer), artificial diet in 24-well plates; conditions: 144 h, application rate 200 ppm, L2 larvae, 6 days after infestation
Description: 24-well microtiter plates with artificial diet were treated with aqueous test solutions prepared from 10′000 ppm DMSO stock solutions by pipetting. After drying, the plates were infested with L2 larvae (6-8 per well). The samples were assessed for mortality, anti-feeding effect, and growth inhibition in comparison to untreated samples 6 days after infestation. Control of Chilo suppressalis by a test sample is given when at least one of the categories mortality, anti-feedant effect, and growth inhibition is higher than the untreated sample.

[2] = tested on: Myzus persicae; assay: Activity against Myzus persicae (green peach aphid), intrinsic activity; conditions: 120 h, test rate 12 ppm, 5 days after infestation
Description: Test compounds prepared from 10′000 ppm DMSO stock solutions were applied by pipette into 24-well microtiter plates and mixed with sucrose solution. The plates were closed with a stretched Parafilm. A plastic stencil with 24 holes was placed onto the plate and infested pea seedlings were placed directly on the Parafilm. The infested plate was closed with a gel blotting paper and another plastic stencil and then turned upside down. The samples were assessed for mortality 5 days after infestation.

[3] = tested on: Plutella xylostella; assay: Activity against Plutella xylostella (diamond back moth), artificial diet; conditions: 192 h, application rate 200 ppm, eggs, 8 days after infestation, read-out: effect in at least one of the two categories (mortality or growth inhibition)
Description: 24-well microtiter plates with artificial diet were treated with aqueous test solutions prepared from 10′000 ppm DMSO stock solutions by pipetting. After drying, Plutella eggs were pipetted through a plastic stencil onto a gel blotting paper and the plate was closed with it. The samples were assessed for mortality and growth inhibition in comparison to untreated samples 8 days after infestation.
(§1) Activity of compound P5 according to the preparatory examples and of compound P.118 from WO 21/083936 against Plutella xylostella ([…]) and Diabrotica balteata (Example B2) is summarized in Table B9.

[4] = tested on: Diabrotica balteata; assay: Activity against Diabrotica balteata (corn root worm), sprayed maize sprouts; conditions: 96 h, application rate 200 ppm, L2 larvae, 4 days after infestation, read-out: effect in at least one of the two categories (mortality or growth inhibition)
Description: Maize sprouts placed onto an agar layer in 24-well microtiter plates were treated with aqueous test solutions prepared from 10′000 ppm DMSO stock solutions by spraying. After drying, the plates were infested with L2 larvae (6 to 10 per well). The samples were assessed for mortality and growth inhibition in comparison to untreated samples 4 days after infestation.
as §1

[5] = tested on: Spodoptera littoralis; assay: Activity against Spodoptera littoralis (Egyptian cotton leaf worm), sprayed cotton leaf discs; conditions: foliar, 72 h, application rate 200 ppm, L1 larvae, 3 days after infestation
Description: Cotton leaf discs were placed onto agar in 24-well microtiter plates and sprayed with aqueous test solutions prepared from 10′000 ppm DMSO stock solutions. After drying the leaf discs were infested with five L1 larvae. The samples were assessed for mortality, anti-feeding effect, and growth inhibition in comparison to untreated samples 3 days after infestation. Control of Spodoptera littoralis by a test sample is given when at least one of the categories mortality, anti-feedant effect, and growth inhibition is higher than the untreated sample.

[6] = tested on: Myzus persicae; assay: Activity against Myzus persicae (green peach aphid), feeding/contact activity; conditions: 144 h, application rate 200 ppm, mixed ages, 6 days after infestation
Description: Sunflower leaf discs were placed onto agar in a 24-well microtiter plate and sprayed with aqueous test solutions prepared from 10′000 ppm DMSO stock solutions. After drying, the leaf discs were infested with an aphid population of mixed ages. The samples were assessed for mortality 6 days after infestation.

[7] = tested on: Frankliniella occidentalis; assay: Activity against Frankliniella occidentalis (western flower thrips), sprayed sunflower leaf discs; conditions: foliar, 168 h, application rate 200 ppm, mixed ages, 7 days after infestation
Description: Sunflower leaf discs were placed on agar in 24-well microtiter plates and sprayed with aqueous test solutions prepared from […] stock solutions. After drying the leaf discs were infested with a Frankliniella population of mixed ages. The samples were assessed for mortality 7 days after infestation.

C[C@H](Nc1ncnc2c(Cl)cc(C(F)(F)F)cc12)c1ncnn1-c1ncc(C#N)s1 [P15, 2-[5-[(1S)-1-[[8-chloro-6-(trifluoromethyl)quinazolin-4-yl]amino]ethyl]-1,2,4-triazol-1-yl]thiazole-5-carbonitrile]
≥ 80%: percent control (mortality, anti-feedant effect or growth inhibition) at 200 ppm [1] | mortality at 12 ppm [2] | percent effect (mortality or growth inhibition) at 200 ppm [3] | percent effect (mortality or growth inhibition) at 200 ppm [4] | percent control (mortality, anti-feedant effect or growth inhibition) at 200 ppm [5]

C[C@H](Nc1ncnc2c(Br)cc(Br)cc12)c1ncnn1-c1ncc(C#N)s1 [P14, 2-[5-[(1S)-1-[(6,8-dibromoquinazolin-4-yl)amino]ethyl]-1,2,4-triazol-1-yl]thiazole-5-carbonitrile]
≥ 80%: percent control (mortality, anti-feedant effect or growth inhibition) at 200 ppm [1] | percent effect (mortality or growth inhibition) at 200 ppm [3] | mortality at 200 ppm [6] | percent effect (mortality or growth inhibition) at 200 ppm [4] | percent control (mortality, anti-feedant effect or growth inhibition) at 200 ppm [5]

C[C@H](Nc1ncnc2c(Cl)cc(I)cc12)c1ncnn1-c1ncc(C#N)s1 [P20, 2-[5-[(1S)-1-[(8-chloro-6-iodo-quinazolin-4-yl)amino]ethyl]-1,2,4-triazol-1-yl]thiazole-5-carbonitrile]
≥ 80%: percent control (mortality, anti-feedant effect or growth inhibition) at 200 ppm [1] | percent effect (mortality or growth inhibition) at 200 ppm [3] | percent effect (mortality or growth inhibition) at 200 ppm [4] | percent control (mortality, anti-feedant effect or growth inhibition) at 200 ppm [5] | mortality at 200 ppm [7]
